Structures are written as SMILES. Some results are limits rather than exact numbers.

Chain of Mitogen-activated protein kinase 8 (P45983 whole entry): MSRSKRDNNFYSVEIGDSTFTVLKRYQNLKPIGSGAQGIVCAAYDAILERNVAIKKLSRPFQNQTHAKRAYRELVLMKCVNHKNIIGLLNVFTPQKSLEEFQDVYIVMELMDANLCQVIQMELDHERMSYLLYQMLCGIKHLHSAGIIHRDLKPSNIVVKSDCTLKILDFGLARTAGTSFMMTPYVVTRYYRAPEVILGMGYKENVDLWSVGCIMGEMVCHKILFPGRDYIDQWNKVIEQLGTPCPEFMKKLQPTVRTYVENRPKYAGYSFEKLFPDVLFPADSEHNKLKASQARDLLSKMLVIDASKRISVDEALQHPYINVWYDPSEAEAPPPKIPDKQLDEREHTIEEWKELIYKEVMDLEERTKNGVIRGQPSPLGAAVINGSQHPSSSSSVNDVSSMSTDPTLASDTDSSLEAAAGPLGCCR
Chain of Dual specificity mitogen-activated protein kinase kinase 1 (Q02750 whole entry): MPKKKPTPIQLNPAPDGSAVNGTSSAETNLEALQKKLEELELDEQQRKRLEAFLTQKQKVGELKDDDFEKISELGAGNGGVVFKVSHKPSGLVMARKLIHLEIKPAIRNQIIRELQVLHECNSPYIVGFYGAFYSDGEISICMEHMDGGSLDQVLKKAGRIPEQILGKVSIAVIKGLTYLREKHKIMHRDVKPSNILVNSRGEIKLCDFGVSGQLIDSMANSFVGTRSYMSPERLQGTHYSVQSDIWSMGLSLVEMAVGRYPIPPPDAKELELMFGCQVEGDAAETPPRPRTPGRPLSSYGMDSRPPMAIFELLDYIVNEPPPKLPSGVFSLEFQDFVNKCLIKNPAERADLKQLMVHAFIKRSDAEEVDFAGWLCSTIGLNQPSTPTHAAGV

One data set has as its target Mitogen-activated protein kinase 8 (Homo sapiens, UniProt P45983). The data set is described as follows: Inhibition of full-length recombinant human His-tagged MAPK8 expressed in baculovirus expression system by Z'-LYTE assay.
Conditions: not given
In the case of `Cc1sc(C(=O)N[C@@H]2[C@H](N)CCCC2(F)F)cc1-c1cnn2cc(Cl)cnc12`, the IC50 turned out to be 15 µM.

On to `Cn1cc(-c2cnc3c(-c4csc(C(=O)N[C@@H]5CCCC[C@@H]5N)c4)cnn3c2)cn1` (racemic), for which the IC50 is 1.2 µM.

The target in another data set is Insulin-like growth factor 1 receptor (Homo sapiens, UniProt P08069). The data set is described as follows: Inhibition of recombinant human C-terminal His-tagged cytoplasmic IGF1R (960 to 1397 residues) expressed in baculovirus expression system by Z'-LYTE assay.
Chain of Insulin-like growth factor 1 receptor (P08069 31-736 limits assumed): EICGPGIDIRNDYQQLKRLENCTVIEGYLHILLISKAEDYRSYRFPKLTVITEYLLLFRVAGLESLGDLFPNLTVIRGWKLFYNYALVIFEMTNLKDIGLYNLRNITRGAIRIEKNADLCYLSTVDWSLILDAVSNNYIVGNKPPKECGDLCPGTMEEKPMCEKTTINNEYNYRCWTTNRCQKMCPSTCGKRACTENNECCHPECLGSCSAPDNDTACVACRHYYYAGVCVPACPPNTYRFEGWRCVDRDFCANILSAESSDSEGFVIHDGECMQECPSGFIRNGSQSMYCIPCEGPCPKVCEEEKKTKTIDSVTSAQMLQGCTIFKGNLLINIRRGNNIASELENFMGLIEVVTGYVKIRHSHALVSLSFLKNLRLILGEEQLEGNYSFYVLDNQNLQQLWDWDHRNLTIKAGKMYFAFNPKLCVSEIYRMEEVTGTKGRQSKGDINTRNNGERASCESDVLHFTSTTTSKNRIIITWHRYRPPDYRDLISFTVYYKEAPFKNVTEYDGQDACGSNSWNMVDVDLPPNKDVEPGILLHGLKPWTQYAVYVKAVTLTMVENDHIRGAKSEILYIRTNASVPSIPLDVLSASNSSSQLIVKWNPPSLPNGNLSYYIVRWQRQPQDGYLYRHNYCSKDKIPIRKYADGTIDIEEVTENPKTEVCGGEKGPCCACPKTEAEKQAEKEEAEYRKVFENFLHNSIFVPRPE
Chain of Insulin-like growth factor 1 receptor (P08069 741-1367 limits assumed): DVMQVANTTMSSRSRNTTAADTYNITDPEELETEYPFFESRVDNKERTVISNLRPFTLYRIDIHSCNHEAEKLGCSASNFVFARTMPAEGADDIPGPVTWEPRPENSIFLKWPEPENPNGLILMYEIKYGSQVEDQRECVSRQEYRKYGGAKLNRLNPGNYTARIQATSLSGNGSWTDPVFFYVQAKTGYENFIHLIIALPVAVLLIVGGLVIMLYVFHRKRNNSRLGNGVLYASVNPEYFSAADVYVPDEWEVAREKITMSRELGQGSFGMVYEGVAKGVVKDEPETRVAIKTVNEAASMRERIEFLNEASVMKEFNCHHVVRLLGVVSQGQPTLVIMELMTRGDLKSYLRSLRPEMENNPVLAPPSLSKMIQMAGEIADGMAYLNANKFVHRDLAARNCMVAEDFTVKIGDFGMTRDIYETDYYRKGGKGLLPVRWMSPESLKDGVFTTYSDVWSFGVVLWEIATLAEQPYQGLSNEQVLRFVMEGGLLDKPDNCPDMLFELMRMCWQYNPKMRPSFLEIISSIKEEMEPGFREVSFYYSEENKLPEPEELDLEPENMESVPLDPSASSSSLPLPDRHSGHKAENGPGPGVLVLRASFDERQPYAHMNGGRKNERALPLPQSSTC
Conditions: not given
With `Cc1sc(C(=O)N[C@@H]2[C@H](N)CCCC2(F)F)cc1-c1cnn2cc(Cl)cnc12`, the IC50 was over 100 µM.

For the molecule `Cn1cc(-c2cnc3c(-c4csc(C(=O)N[C@@H]5CCCC[C@@H]5N)c4)cnn3c2)cn1` (racemic), the IC50 is 2.8 µM.

For the next data set, the target named is T1, Mitogen-activated protein kinase 13 (Homo sapiens, UniProt O15264).
T1 sequence (O15264 whole entry): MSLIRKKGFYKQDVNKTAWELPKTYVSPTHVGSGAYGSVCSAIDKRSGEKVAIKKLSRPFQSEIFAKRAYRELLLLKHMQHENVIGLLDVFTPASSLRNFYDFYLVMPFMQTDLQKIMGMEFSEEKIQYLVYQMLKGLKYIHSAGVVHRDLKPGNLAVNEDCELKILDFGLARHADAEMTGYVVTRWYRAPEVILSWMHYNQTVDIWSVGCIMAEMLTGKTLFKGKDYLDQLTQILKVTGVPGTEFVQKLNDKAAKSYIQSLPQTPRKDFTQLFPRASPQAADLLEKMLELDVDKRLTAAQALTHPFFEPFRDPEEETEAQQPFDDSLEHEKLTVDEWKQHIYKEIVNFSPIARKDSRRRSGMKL
The data set is described as follows: Inhibition of full-length recombinant human His-tagged MAPK13 expressed in baculovirus expression system by Z'-LYTE assay.
Conditions: not given
On to `Cc1sc(C(=O)N[C@@H]2[C@H](N)CCCC2(F)F)cc1-c1cnn2cc(Cl)cnc12`, for which the IC50 worked out at 0.16 µM.

For the molecule `Cn1cc(-c2cnc3c(-c4csc(C(=O)N[C@@H]5CCCC[C@@H]5N)c4)cnn3c2)cn1` (racemic), the IC50 was found to be 0.039 µM.

Another data set concerns the target T2, Ephrin type-B receptor 2 (Homo sapiens, UniProt P29323).
T2 sequence (P29323 whole entry): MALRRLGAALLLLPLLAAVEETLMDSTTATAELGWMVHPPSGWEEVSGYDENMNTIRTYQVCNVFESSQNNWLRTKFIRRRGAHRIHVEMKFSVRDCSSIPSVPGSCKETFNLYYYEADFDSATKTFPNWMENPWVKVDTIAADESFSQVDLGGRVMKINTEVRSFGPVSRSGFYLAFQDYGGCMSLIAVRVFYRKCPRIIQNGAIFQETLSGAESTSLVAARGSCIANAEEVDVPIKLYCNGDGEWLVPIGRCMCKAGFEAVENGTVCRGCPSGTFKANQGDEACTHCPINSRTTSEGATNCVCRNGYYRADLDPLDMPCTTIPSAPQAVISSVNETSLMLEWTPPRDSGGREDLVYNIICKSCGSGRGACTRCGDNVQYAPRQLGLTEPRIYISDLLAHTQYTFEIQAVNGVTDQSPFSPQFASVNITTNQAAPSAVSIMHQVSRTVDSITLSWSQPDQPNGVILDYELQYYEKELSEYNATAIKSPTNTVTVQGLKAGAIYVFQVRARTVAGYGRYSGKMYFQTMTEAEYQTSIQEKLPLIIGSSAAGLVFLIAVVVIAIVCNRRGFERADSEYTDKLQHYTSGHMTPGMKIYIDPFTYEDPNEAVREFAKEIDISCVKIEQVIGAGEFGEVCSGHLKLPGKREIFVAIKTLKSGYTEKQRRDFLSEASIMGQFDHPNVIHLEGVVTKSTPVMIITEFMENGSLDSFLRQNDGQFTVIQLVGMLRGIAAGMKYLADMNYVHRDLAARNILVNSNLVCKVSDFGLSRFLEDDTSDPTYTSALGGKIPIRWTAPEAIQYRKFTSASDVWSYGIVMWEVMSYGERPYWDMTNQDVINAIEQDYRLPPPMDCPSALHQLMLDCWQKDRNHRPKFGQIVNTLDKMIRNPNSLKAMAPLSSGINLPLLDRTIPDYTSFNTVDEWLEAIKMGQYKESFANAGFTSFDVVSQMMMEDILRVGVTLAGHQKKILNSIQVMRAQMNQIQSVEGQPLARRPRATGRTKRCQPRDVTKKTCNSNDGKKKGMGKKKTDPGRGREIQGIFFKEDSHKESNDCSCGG
Kind of data set: Inhibition of recombinant human GST-tagged cytoplasmic EPHB2 expressed in baculovirus expression system by Z'-LYTE assay.
Conditions: not given
As to `Cc1sc(C(=O)N[C@@H]2[C@H](N)CCCC2(F)F)cc1-c1cnn2cc(Cl)cnc12`, the IC50 is 3.8 µM.

Turning to `Cn1cc(-c2cnc3c(-c4csc(C(=O)N[C@@H]5CCCC[C@@H]5N)c4)cnn3c2)cn1` (racemic), the half-inhibitory concentration (IC50) is 0.0029 µM.

For another data set, the target named is Serine/threonine-protein kinase PLK1 (Homo sapiens, UniProt P53350). Kind of data set: Inhibition of full-length recombinant human His-tagged PLK1 expressed in baculovirus expression system by Z'-LYTE assay.
Conditions: not given
Turning to `Cc1sc(C(=O)N[C@@H]2[C@H](N)CCCC2(F)F)cc1-c1cnn2cc(Cl)cnc12`, the IC50 was over 100 µM.

Take `Cn1cc(-c2cnc3c(-c4csc(C(=O)N[C@@H]5CCCC[C@@H]5N)c4)cnn3c2)cn1` (racemic): the IC50 is over 10 µM.

The target in another data set is Angiopoietin-1 receptor (Homo sapiens, UniProt Q02763). The data set is described as follows: Inhibition of recombinant human GST-tagged cytoplasmic TEK expressed in baculovirus expression system by Z'-LYTE assay.
Chain of Angiopoietin-1 receptor (Q02763 whole entry): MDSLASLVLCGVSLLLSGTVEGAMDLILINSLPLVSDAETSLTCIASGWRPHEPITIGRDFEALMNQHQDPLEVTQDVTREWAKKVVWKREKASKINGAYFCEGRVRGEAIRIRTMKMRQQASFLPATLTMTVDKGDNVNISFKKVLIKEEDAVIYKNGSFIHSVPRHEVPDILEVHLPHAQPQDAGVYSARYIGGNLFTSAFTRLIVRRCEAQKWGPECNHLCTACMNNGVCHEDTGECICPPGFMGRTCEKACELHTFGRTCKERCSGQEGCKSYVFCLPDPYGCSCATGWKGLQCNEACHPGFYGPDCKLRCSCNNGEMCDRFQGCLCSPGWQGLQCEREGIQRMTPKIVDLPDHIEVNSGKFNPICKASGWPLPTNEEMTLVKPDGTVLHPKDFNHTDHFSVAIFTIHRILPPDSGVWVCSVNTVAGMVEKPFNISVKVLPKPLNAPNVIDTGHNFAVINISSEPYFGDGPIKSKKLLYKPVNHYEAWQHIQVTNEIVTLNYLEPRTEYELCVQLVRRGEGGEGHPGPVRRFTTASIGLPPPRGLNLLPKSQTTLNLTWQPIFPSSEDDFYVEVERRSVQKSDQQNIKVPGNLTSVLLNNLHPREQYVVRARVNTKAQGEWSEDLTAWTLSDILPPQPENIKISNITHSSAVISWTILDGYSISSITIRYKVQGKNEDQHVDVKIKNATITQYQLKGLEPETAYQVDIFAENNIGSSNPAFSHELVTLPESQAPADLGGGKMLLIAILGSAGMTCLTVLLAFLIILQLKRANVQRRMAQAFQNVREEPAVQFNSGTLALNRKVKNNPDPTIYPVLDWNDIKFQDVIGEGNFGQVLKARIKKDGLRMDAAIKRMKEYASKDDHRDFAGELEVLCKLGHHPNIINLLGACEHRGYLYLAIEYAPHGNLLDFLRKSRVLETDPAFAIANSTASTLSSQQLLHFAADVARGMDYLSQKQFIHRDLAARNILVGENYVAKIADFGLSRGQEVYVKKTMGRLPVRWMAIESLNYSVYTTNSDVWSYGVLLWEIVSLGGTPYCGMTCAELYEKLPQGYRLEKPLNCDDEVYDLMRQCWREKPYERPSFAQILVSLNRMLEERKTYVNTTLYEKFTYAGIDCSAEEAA
Conditions: not given
For `Cc1sc(C(=O)N[C@@H]2[C@H](N)CCCC2(F)F)cc1-c1cnn2cc(Cl)cnc12`, the IC50 was over 100 µM.

Take `Cn1cc(-c2cnc3c(-c4csc(C(=O)N[C@@H]5CCCC[C@@H]5N)c4)cnn3c2)cn1` (racemic): the IC50 turned out to be 0.66 µM.

Another data set has as its target Dual specificity mitogen-activated protein kinase kinase 1 (Homo sapiens, UniProt Q02750). The data set is described as follows: Inhibition of full-length recombinant human His-tagged MAP2K1 expressed in baculovirus expression system by LanthaScreen assay.
Conditions: not given
(In general: Time-resolved FRET reads energy transfer from a long-lived donor to a nearby acceptor.)
Take `Cc1sc(C(=O)N[C@@H]2[C@H](N)CCCC2(F)F)cc1-c1cnn2cc(Cl)cnc12`: the IC50 worked out at 1.1 µM.

In the case of `Cn1cc(-c2cnc3c(-c4csc(C(=O)N[C@@H]5CCCC[C@@H]5N)c4)cnn3c2)cn1` (racemic), the IC50 came to 0.12 µM.

The target in a further data set is Rho-associated protein kinase 1 (Homo sapiens, UniProt Q13464). Kind of data set: Inhibition of recombinant human GST-tagged ROCK1 catalytic domain expressed in baculovirus expression system by Z'-LYTE assay.
Conditions: not given
Turning to `Cc1sc(C(=O)N[C@@H]2[C@H](N)CCCC2(F)F)cc1-c1cnn2cc(Cl)cnc12`, the half-inhibitory concentration (IC50) worked out at 2.3 µM.

For the molecule `Cn1cc(-c2cnc3c(-c4csc(C(=O)N[C@@H]5CCCC[C@@H]5N)c4)cnn3c2)cn1` (racemic), the IC50 is 0.017 µM.

The target of another data set is Tyrosine-protein kinase Lck (Homo sapiens, UniProt P06239). The data set is described as follows: Inhibition of full-length recombinant human His-tagged LCK expressed in baculovirus expression system by Z'-LYTE assay.
Conditions: not given
Take `Cc1sc(C(=O)N[C@@H]2[C@H](N)CCCC2(F)F)cc1-c1cnn2cc(Cl)cnc12`: the IC50 came out at 5 µM.

Turning to `Cn1cc(-c2cnc3c(-c4csc(C(=O)N[C@@H]5CCCC[C@@H]5N)c4)cnn3c2)cn1` (racemic), the IC50 was 0.0039 µM.

The target of the next data set is Serine/threonine-protein kinase MRCK alpha (Homo sapiens, UniProt Q5VT25). Kind of data set: Inhibition of recombinant human His-tagged CDC42BPA catalytic domain expressed in baculovirus expression system by Z'-LYTE assay.
Conditions: not given
As to `Cc1sc(C(=O)N[C@@H]2[C@H](N)CCCC2(F)F)cc1-c1cnn2cc(Cl)cnc12`, the IC50 worked out at 1 µM.

Consider `Cn1cc(-c2cnc3c(-c4csc(C(=O)N[C@@H]5CCCC[C@@H]5N)c4)cnn3c2)cn1` (racemic), for which the IC50 was found to be 0.072 µM.

System in a further data set: not listed separately
Kind of data set: Clearance in Sprague-Dawley rat at 1 mL/kg, iv administered through catheter measured after 24 hrs by LC-MS/MS analysis. Format: ADME, organism-based. The note with it: in vivo.
In the case of `Cc1sc(C(=O)N[C@@H]2[C@H](N)CCCC2(F)F)cc1-c1cnn2cc(Cl)cnc12`, the clearance amounted to 19 mL/min/kg.

A further data set deals with Serine/threonine-protein kinase PAK 1 (Homo sapiens, UniProt Q13153). Kind of data set: Inhibition of full-length recombinant human GST-tagged PAK1 expressed in baculovirus expression system by Z'-LYTE assay.
Chain of Serine/threonine-protein kinase PAK 1 (Q13153 whole entry): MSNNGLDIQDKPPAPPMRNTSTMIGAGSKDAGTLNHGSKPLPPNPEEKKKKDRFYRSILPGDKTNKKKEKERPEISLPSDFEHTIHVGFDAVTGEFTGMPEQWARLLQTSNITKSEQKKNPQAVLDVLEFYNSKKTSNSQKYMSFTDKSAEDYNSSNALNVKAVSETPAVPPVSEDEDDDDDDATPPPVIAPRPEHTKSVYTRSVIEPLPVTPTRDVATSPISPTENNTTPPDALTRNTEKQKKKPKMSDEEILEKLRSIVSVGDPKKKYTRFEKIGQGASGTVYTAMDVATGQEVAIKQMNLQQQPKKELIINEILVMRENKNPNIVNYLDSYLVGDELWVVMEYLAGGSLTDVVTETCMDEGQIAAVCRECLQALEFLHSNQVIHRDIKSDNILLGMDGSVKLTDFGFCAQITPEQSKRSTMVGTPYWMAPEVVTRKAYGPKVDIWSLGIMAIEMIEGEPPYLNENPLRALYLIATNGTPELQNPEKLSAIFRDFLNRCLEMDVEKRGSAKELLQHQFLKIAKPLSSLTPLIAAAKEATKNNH
Conditions: not given
On to `Cc1sc(C(=O)N[C@@H]2[C@H](N)CCCC2(F)F)cc1-c1cnn2cc(Cl)cnc12`, for which the IC50 is 2.1 µM.

For `Cn1cc(-c2cnc3c(-c4csc(C(=O)N[C@@H]5CCCC[C@@H]5N)c4)cnn3c2)cn1` (racemic), the IC50 came to 0.024 µM.

In the next data set the target is MAP kinase-activated protein kinase 2 (Homo sapiens, UniProt P49137). The data set is described as follows: Inhibition of full-length recombinant human His-tagged MAPKAPK2 expressed in Escherichia coli by Z'-LYTE assay.
Chain of MAP kinase-activated protein kinase 2 (P49137 whole entry): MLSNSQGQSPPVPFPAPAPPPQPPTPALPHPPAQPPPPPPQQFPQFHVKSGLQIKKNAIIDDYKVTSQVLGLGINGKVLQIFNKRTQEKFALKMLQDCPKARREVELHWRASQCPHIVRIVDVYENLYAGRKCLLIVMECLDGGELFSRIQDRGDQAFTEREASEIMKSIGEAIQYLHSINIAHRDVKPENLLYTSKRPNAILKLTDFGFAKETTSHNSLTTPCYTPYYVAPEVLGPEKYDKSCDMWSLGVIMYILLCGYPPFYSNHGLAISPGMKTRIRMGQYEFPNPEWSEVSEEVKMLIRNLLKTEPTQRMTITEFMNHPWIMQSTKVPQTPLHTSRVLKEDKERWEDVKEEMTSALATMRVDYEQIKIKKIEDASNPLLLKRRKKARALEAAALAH
Conditions: not given
As to `Cc1sc(C(=O)N[C@@H]2[C@H](N)CCCC2(F)F)cc1-c1cnn2cc(Cl)cnc12`, the IC50 was 7.8 µM.

Regarding `Cn1cc(-c2cnc3c(-c4csc(C(=O)N[C@@H]5CCCC[C@@H]5N)c4)cnn3c2)cn1` (racemic), the IC50 turned out to be 0.39 µM.

The target in another data set is G protein-coupled receptor kinase 4 (Homo sapiens, UniProt P32298). The data set is described as follows: Inhibition of full-length recombinant human GST-tagged GRK4 expressed in baculovirus expression system by Z'-LYTE assay.
Chain of G protein-coupled receptor kinase 4 (P32298 whole entry): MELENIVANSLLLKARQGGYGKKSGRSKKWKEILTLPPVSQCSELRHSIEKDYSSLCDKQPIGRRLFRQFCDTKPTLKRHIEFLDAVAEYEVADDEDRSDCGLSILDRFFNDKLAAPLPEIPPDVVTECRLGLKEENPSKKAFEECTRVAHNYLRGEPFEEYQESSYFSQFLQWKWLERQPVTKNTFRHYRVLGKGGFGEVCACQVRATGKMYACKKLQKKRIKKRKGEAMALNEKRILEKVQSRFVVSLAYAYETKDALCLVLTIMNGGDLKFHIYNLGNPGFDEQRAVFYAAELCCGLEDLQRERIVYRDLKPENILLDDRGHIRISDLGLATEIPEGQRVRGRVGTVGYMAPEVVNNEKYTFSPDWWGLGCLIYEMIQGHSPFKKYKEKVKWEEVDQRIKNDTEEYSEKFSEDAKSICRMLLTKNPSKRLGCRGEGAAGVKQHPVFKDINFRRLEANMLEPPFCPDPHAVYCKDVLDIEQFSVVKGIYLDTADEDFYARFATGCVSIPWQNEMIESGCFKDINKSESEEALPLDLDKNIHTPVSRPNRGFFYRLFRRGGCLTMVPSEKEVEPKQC
Conditions: not given
In the case of `Cc1sc(C(=O)N[C@@H]2[C@H](N)CCCC2(F)F)cc1-c1cnn2cc(Cl)cnc12`, the IC50 came out at 0.67 µM.

For the molecule `Cn1cc(-c2cnc3c(-c4csc(C(=O)N[C@@H]5CCCC[C@@H]5N)c4)cnn3c2)cn1` (racemic), the IC50 came to 0.26 µM.

For another data set, the target named is T3, Interleukin-1 receptor-associated kinase 4 (Homo sapiens, UniProt Q9NWZ3).
T3 sequence (Q9NWZ3 whole entry): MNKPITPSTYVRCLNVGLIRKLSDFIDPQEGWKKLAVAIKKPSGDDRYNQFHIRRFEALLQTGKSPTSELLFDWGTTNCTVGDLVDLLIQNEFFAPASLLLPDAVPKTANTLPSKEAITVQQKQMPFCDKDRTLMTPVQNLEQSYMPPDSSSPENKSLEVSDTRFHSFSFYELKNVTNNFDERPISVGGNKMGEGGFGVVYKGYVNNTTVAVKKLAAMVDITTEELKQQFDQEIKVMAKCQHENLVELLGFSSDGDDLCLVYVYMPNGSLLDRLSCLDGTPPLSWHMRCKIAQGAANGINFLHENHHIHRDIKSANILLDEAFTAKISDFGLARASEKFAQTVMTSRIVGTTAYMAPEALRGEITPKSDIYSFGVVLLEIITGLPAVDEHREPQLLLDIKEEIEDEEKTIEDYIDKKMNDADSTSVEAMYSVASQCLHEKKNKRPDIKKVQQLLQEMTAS
The data set is described as follows: Inhibition of full-length recombinant human His-tagged IRAK4 expressed in baculovirus expression system by Z'-LYTE assay.
Conditions: not given
Consider `Cc1sc(C(=O)N[C@@H]2[C@H](N)CCCC2(F)F)cc1-c1cnn2cc(Cl)cnc12`, for which the IC50 turned out to be 3 µM.

For `Cn1cc(-c2cnc3c(-c4csc(C(=O)N[C@@H]5CCCC[C@@H]5N)c4)cnn3c2)cn1` (racemic), the IC50 came to 0.023 µM.

As usually defined, the IC50 is the concentration at which inhibition is half-maximal. By clearance is commonly meant the rate of elimination divided by the concentration. Low values mean inefficient removal, high ones efficient removal.

The values are drawn from ChEMBL document CHEMBL4477252, “Optimization of microtubule affinity regulating kinase (MARK) inhibitors with improved physical properties” (Bioorg Med Chem Lett, 2016).
